Laboratory results: patent publication US10774102B2, “Galactoside inhibitor of galectins” (Galecto Biotech AB, priority 2015, dated 2020)

Biological target: galectin-3 (Homo sapiens (Human), UniProt P17931)
Experiment: Fluorescence anisotropy assay of galectin-3 affinity (compound inhibits galectin binding to a fluorescein tagged saccharide probe)
Conditions: high affinity probe, 50 nM galectin-3, 100 nM albumin
Experimental: 100 nM albumin was included as a carrier to prevent protein loss at such low concentration of galectin.

Sequence of galectin-3 (P17931 whole entry): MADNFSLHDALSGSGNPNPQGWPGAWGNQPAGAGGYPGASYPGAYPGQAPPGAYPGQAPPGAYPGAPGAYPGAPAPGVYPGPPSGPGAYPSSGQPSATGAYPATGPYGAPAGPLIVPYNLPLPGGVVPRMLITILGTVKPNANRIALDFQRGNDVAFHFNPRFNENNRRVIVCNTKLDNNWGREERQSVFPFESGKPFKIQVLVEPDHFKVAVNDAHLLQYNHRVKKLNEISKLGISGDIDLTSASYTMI

SMILES	Kd
OC[C@H]1O[C@H](Sc2cc(Cl)c(Cl)cc2Cl)[C@H](O)[C@@H](n2cc(-c3cc(F)c(F)c(F)c3)nn2)[C@H]1O [Example 36, 2,4,5-Trichlorophenyl 3-deoxy-3-[4-(3,4,5-trifluorophenyl)-1H-1,2,3-triazol-1-yl]-1-thio-α-D-galactopyranoside]	0.06 µM
OC[C@H]1O[C@H](Sc2ccc(OC(F)(F)F)cc2)[C@H](O)[C@@H](n2cc(-c3cc(F)c(F)c(F)c3)nn2)[C@H]1O [Example 31, 4-Trifluoromethoxyphenyl 3-deoxy-3-[4-(3,4,5-trifluorophenyl)-1H-1,2,3-triazol-1-yl]-1-thio-α-D-galactopyranoside]	0.28 µM
OC[C@H]1O[C@H](Oc2ccccc2)[C@H](O)[C@@H](n2cc(-c3cc(F)c(F)c(F)c3)nn2)[C@H]1O [Example 32, Phenyl 3-deoxy-3-[4-(3,4,5-trifluorophenyl)-1H-1,2,3-triazol-1-yl]-α-D-galactopyranoside]	1 µM
CN(C)c1cccc2cc(S(=O)(=O)[C@H]3OC(CO)[C@H](O)[C@H](n4cc(-c5cc(F)c(F)c(F)c5)nn4)C3O)ccc12 (stereo partly drawn) [Example 95, 5-Dimethylamino-naphtalen-2-yl 3-deoxy-3-[4-(3,4,5-trifluorophenyl)-1H-1,2,3-triazol-1-yl]-α-D-galactopyranosyl sulfone]	0.96 µM
OC[C@H]1O[C@H](SC2CCCCC2)[C@H](O)[C@@H](n2cc(-c3cc(F)c(F)c(F)c3)nn2)[C@H]1O [Example 35, Cyclohexyl 3-deoxy-3-[4-(3,4,5-trifluorophenyl)-1H-1,2,3-triazol-1-yl]-1-thio-α-D-galactopyranoside]	0.44 µM
OCC1O[C@H](SCCc2ccccc2)C(O)[C@@H](n2cc(-c3cc(F)c(F)c(F)c3)nn2)[C@H]1O (stereo partly drawn) [Example 40, 2-Phenethyl 3-deoxy-3-[4-(3,4,5-trifluorophenyl)-1H-1,2,3-triazol-1-yl]-1-thio-α-D-galactopyranoside]	0.48 µM
OC[C@H]1O[C@H](Sc2cc(Cl)cc(Cl)c2)[C@H](O)[C@@H](n2cc(-c3cc(F)c(F)c(F)c3)nn2)[C@H]1O [Example 16, 3,5-Dichlorophenyl 3-deoxy-3-[4-(3,4,5-trifluorophenyl)-1H-1,2,3-triazol-1-yl]-1-thio-α-D-galactopyranoside]	0.08 µM
Cc1cccc(S[C@H]2O[C@H](CO)[C@H](O)[C@H](n3cc(-c4cc(F)c(F)c(F)c4)nn3)[C@H]2O)c1 [Example 13, 3-Methylphenyl 3-deoxy-3-[4-(3,4,5-trifluorophenyl)-1H-1,2,3-triazol-1-yl]-1-thio-α-D-galactopyranoside]	0.24 µM
OCC1O[C@H](Sc2cccc3ccccc23)C(O)[C@@H](n2cc(-c3cc(F)c(F)c(F)c3)nn2)[C@H]1O (stereo partly drawn) [Example 18, 1-Naphthyl 3-deoxy-1-thio-3-[4-(3,4,5-trifluorophenyl)-1H-1,2,3-triazol-1-yl]-1-thio-α-D-galactopyranoside]	0.96 µM
OCC1O[C@H](SC2CCCC(F)(F)C2)C(O)[C@@H](n2cc(-c3cc(F)c(F)c(F)c3)nn2)[C@H]1O (stereo partly drawn) [Example 76, 3,3′-difluoro-cyklohexyl 3-deoxy-3-[4-(3,4,5-trifluorophenyl)-1H-1,2,3-triazol-1-yl]-1-thio-α-D-galactopyranoside]	0.24 µM
OC[C@H]1O[C@H](Sc2cccc(Cl)c2Cl)[C@H](O)[C@@H](n2cc(-c3cc(F)c(F)c(F)c3)nn2)[C@H]1O [Example 8, 2,3-Dichlorophenyl 3-deoxy-3-[4-(3,4,5-trifluorophenyl)-1H-1,2,3-triazol-1-yl]-1-thio-α-D-galactopyranoside]	0.53 µM
[O-][S+](c1cncc(Cl)c1)[C@H]1OC(CO)[C@H](O)[C@H](n2cc(-c3cc(F)c(F)c(F)c3)nn2)C1O (single isomer, unassigned; isomer 1) [Example 93, 5-Chloropyridin-3-yl 3-deoxy-3-[4-(3,4,5-trifluorophenyl)-1H-1,2,3-triazol-1-yl]-α-D-galactopyranosyl sulfoxide, isomer 1]	0.106 µM
OC[C@H]1O[C@H](Sc2ccccc2)[C@H](O)[C@@H](n2cc(-c3cc(F)c(F)c(F)c3)nn2)[C@H]1O [Example 27, Phenyl 3-deoxy-3-[4-(3,4,5-trifluorophenyl)-1H-1,2,3-triazol-1-yl]-1-thio-α-D-galactopyranoside]	0.4 µM
O=c1oc2ccc(F)c(F)c2cc1CO[C@@H]1[C@@H](O)[C@@H](Sc2ccc(Cl)c(Cl)c2)O[C@H](CO)[C@@H]1O [Example 99, 3,4-Dichlorophenyl 3-O-[(5,6-Difluoro-2-oxo-3-chromenyl)methyl]-1-thio-α-D-galactopyranoside]	0.92 µM
[O-][S+](c1cncc(Br)c1)[C@H]1O[C@H](CO)[C@H](O)[C@H](n2cc(-c3cc(F)c(F)c(F)c3)nn2)[C@H]1O (single isomer, unassigned; isomer 1) [Example 90, 5-Bromopyridin-3-yl 3-deoxy-3-[4-(3,4,5-trifluorophenyl)-1H-1,2,3-triazol-1-yl]-α-D-galactopyranosyl sulfoxide, isomer 1]	0.028 µM
[O-][S+](c1cncc(Br)c1)[C@H]1O[C@H](CO)[C@H](O)[C@H](n2cc(-c3cc(F)c(F)c(F)c3)nn2)[C@H]1O (single isomer, unassigned; isomer 2) [Example 91, 5-Bromopyridin-3-yl 3-deoxy-3-[4-(3,4,5-trifluorophenyl)-1H-1,2,3-triazol-1-yl]-α-D-galactopyranosyl sulfoxide, isomer 2]	0.13 µM

Second part, the compound after the results:

Kd	SMILES
0.51 µM	OCC1O[C@H](Sc2ccccn2)C(O)[C@@H](n2cc(-c3cc(F)c(F)c(F)c3)nn2)[C@H]1O (stereo partly drawn) [Example 21, 2-Pyridyl 3-deoxy-3-[4-(3,4,5-trifluorophenyl-1H-1,2,3-triazol-1-yl]-)-1-thio-α-D-galactopyranoside]
0.65 µM	OC[C@H]1O[C@H](Sc2ccc(Cl)cc2Cl)[C@H](O)[C@@H](n2cc(-c3cc(F)c(F)c(F)c3)nn2)[C@H]1O [Example 5, 2,4-Dichlorophenyl 3-deoxy-3-[4-(3,4,5-trifluorophenyl)-1H-1,2,3-triazol-1-yl]-1-thio-α-D-galactopyranoside]
0.27 µM	OC[C@H]1O[C@H](Sc2ccc(F)cc2)[C@H](O)[C@@H](n2cc(-c3cc(F)c(F)c(F)c3)nn2)[C@H]1O [Example 30, 4-Fluorophenyl 3-deoxy-3-[4-(3,4,5-trifluorophenyl)-1H-1,2,3-triazol-1-yl]-1-thio-α-D-galactopyranoside]
1.58 µM	Cc1cccc(C)c1S[C@H]1O[C@H](CO)[C@H](O)[C@H](n2cc(-c3cc(F)c(F)c(F)c3)nn2)[C@H]1O [Example 17, 2,6-Dimethylphenyl 3-deoxy-3-[4-(3,4,5-trifluorophenyl)-1H-1,2,3-triazol-1-yl]-1-thio-α-D-galactopyranoside]
0.42 µM	CCOc1cccc(S[C@H]2O[C@H](CO)[C@H](O)[C@H](n3cc(-c4cc(F)c(F)c(F)c4)nn3)[C@H]2O)c1 [Example 3, 3-Ethoxyphenyl 3-deoxy-3-[4-(3,4,5-trifluorophenyl)-1H-1,2,3-triazol-1-yl]-1-thio-α-D-galactopyranoside]
3.5 µM	CCOC(=O)c1cn([C@@H]2[C@@H](O)[C@@H](Sc3ccc(Cl)c(Cl)c3)O[C@H](CO)[C@@H]2O)nn1 [Example 97, 3,4-Dichlorophenyl 3-deoxy-3-[4-(ethoxycarbonyl)-1H-1,2,3-triazol-1-yl]-1-thio-α-D-galactopyranoside]
0.41 µM	COc1ccc(S[C@H]2OC(CO)[C@H](O)[C@H](n3cc(-c4cc(F)c(F)c(F)c4)nn3)C2O)cc1 (stereo partly drawn) [Example 7, 4-Methoxyphenyl 3-deoxy-3-[4-(3,4,5-trifluorophenyl)-1H-1,2,3-triazol-1-yl]-1-thio α-D-galactopyranoside]
3.5 µM	O=C(N[C@@H]1C(O)[C@@H](Sc2ccc(Cl)c(Cl)c2)OC(CO)[C@@H]1O)c1cc(F)c(F)c(F)c1 (stereo partly drawn) [Example 96, 3,4-dichlorophenyl-3-deoxy-3-(3,4,5-trifluorobenzamido)-1-thio-α-D-galactopyranoside]
0.49 µM	OC[C@H]1O[C@H](Sc2cccc(O)c2)[C@H](O)[C@@H](n2cc(-c3cc(F)c(F)c(F)c3)nn2)[C@H]1O [Example 38, 3-Hydroxy-phenyl 3-deoxy-3-[4-(3,4,5-trifluorophenyl)-1H-1,2,3-triazol-1-yl]-1-thio-α-D-galactopyranoside]
0.49 µM	OC[C@H]1O[C@H](Oc2ccc(Cl)c(Cl)c2)[C@H](O)[C@@H](n2cc(-c3cc(F)c(F)c(F)c3)nn2)[C@H]1O [Example 22, 3,4-Dichlorophenyl 3-deoxy-3-[4-(3,4,5-trifluorophenyl)-1H-1,2,3-triazol-1-yl]-α-D-galactopyranoside]
0.01 µM	[O-][S+](c1ccc(Cl)c(Cl)c1)[C@H]1O[C@H](CO)[C@H](O)[C@H](n2cc(-c3cc(F)c(F)c(F)c3)nn2)[C@H]1O (stereo partly drawn) [Example 24, 3,4-Dichlorophenyl 3-deoxy-3-[4-(3,4,5-trifluorophenyl)-1H-1,2,3-triazol-1-yl]-α-D-galactopyranosyl sulfoxide]

Test system: not listed separately
Experiment: Pharmacokinetic studies in mice
Conditions: mouse, in vivo, 10 mg/kg, oral, read-out: Bioavailability (F)
Source text: This is exemplified by Example 9 3,4-Dichlorophenyl 3-deoxy-3-[4-(3,4,5-trifluorophenyl)-1H-1,2,3-triazol-1-yl]-1-thio-α-D-galactopyranoside in the table below.

bioavailability	SMILES
75%	OC[C@H]1O[C@H](Sc2ccc(Cl)c(Cl)c2)[C@H](O)[C@@H](n2cc(-c3cc(F)c(F)c(F)c3)nn2)[C@H]1O [Example 9, 3,4-Dichlorophenyl 3-deoxy-3-[4-(3,4,5-trifluorophenyl)-1H-1,2,3-triazol-1-yl]-1-thio-α-D-galactopyranoside]

Same assay, conditions: mouse, in vivo, po, 10 mg/kg

Cmax	SMILES
16 µM	OC[C@H]1O[C@H](Sc2ccc(Cl)c(Cl)c2)[C@H](O)[C@@H](n2cc(-c3cc(F)c(F)c(F)c3)nn2)[C@H]1O [Example 9, 3,4-Dichlorophenyl 3-deoxy-3-[4-(3,4,5-trifluorophenyl)-1H-1,2,3-triazol-1-yl]-1-thio-α-D-galactopyranoside]

Same assay, conditions: mouse, in vivo, read-out: Clearance (CL)

clearance	SMILES
1.2 mL/min/kg	OC[C@H]1O[C@H](Sc2ccc(Cl)c(Cl)c2)[C@H](O)[C@@H](n2cc(-c3cc(F)c(F)c(F)c3)nn2)[C@H]1O [Example 9, 3,4-Dichlorophenyl 3-deoxy-3-[4-(3,4,5-trifluorophenyl)-1H-1,2,3-triazol-1-yl]-1-thio-α-D-galactopyranoside]

Same assay, conditions: mouse, in vivo, read-out: Halflife (t½) (converted)

half-life	SMILES
4.5 h	OC[C@H]1O[C@H](Sc2ccc(Cl)c(Cl)c2)[C@H](O)[C@@H](n2cc(-c3cc(F)c(F)c(F)c3)nn2)[C@H]1O [Example 9, 3,4-Dichlorophenyl 3-deoxy-3-[4-(3,4,5-trifluorophenyl)-1H-1,2,3-triazol-1-yl]-1-thio-α-D-galactopyranoside]

Biological target: galectins
Experiment: not given
Conditions: all galectins; cited from earlier work

SMILES	Kd
OC[C@H]1O[C@@H](O[C@H]2[C@H](O)[C@@H](O)C(O)O[C@@H]2CO)[C@H](O)[C@@H](O)[C@H]1O (stereo partly drawn) [lactose]	500 to 1000 µM

Same assay, conditions: galectins; compared with lactose; cited from earlier work

SMILES	affinity relative to lactose (times lower)
O=C[C@H](O)[C@@H](O)[C@@H](O)[C@H](O)CO [D-galactose, D-(+)-galactose]	50-100 times lower
